Measured values as given in patent US20070191490A1, “Withacnistin compounds for treatment of cancer” (priority 2006, published 2007).

What was measured:
A549 tumors = test: TUNEL immunohistochemistry of A549 tumor sections; type: in vivo, nude mice; details: 1 mg/kg/day, control 0.4±0.1%
Procedure: TUNEL immunohistochemistry. Tumors were harvested, […], and dewaxed as described for P-STAT3 immunohistochemistry. Tissue sections (5 μm) were digested for 10 minutes with 25 μg/ml proteinase K in PBS and then washed thoroughly. Peroxidases were quenched with 3% hydrogen peroxide in PBS and washed. Sections were equilibrated with equilibration buffer, then incubated in 30% TdT enzymes/70% digoxigenin nucleotidyl reaction buffer for 1 hour at 37° C. in a humidified chamber. The labeling reaction was stopped in stop/wash buffer with moderate shaking. Slides then were placed on the Dako Autostainer and incubated with antidigoxigenin-peroxidase (DakoCytomation California, Inc.) for 30 minutes using DAB substrate. Sections were counterstained with methyl green (Vector Laboratories), dehydrated through ascending alcohol, cleared, and mounted with resinous mounting medium. The quantification was performed by counting both the TUNEL-positive and -negative cells on slides representative of eight tumors and significance was determined by Student's t-test.
(§1) To determine whether phosphotyrosine STAT3 is targeted by withacnistin in vivo, and to determine if the results seen in cell culture concerning induction of apoptosis were occurring in tumors from animals treated with withacnistin, on the termination day of the A549 antitumor experiment, tumors from animals treated with Cuc A, Cuc I, and the withacnistin mixture, as well as vehicle control, were extracted and fixed in 10% neutral-buffered formalin and then processed into paraffin blocks for tissue sectioning. These tissue sections were stained separately with either TUNEL for determination of apoptosis, or phosphotyrosine STAT3 to determine if the signaling protein is inhibited in the tumors.

phosphotyrosine STAT3 = test: P-STAT3 immunohistochemistry of A549 tumor sections; type: in vivo, nude mice; details: 1 mg/kg/day; for P-STAT3 positive cells: termination day, control 76.5±1.4%
Procedure: P-STAT3 immunohistochemistry. On the termination day of the A549 antitumor experiment, tumors were extracted and fixed in 10% neutral-buffered formalin for 6 hours. After fixation, the tissue samples were processed into paraffin blocks. Tissue sections (5 μm) were dewaxed with xylene and rehydrated through descending alcohol to deionized water and then placed in PBS. Antigens were retrieved briefly with citrate buffer, pH 6.0, in a microwave followed by a mild trypsinization (0.025% trypsin in 50 mM Tris buffer containing 0.05% calcium chloride, pH 7.6). From this point, all steps were carried out in a DAKO Autostainer (DakoCytomation California, Inc., Carpinteria, Calif., USA). Sections were rinsed three times in TBS-Tween buffer, pH 7.6, then endogenous peroxidases were quenched with 3% hydrogen peroxide and nonspecific binding with 2% normal goat serum in 3% BSA/PBS. Sections then were incubated overnight with 1:400 phospho-STAT3 (Cell Signaling Technologies) at 4° C. in a humidified chamber. Detection was performed using the Elite ABC Rabbit kit (Vector Laboratories) and DAB chromogen (DakoCytomation California, Inc.) according to the manufacturer's instructions. Slides were counterstained for 20-30 seconds with modified Mayer's hematoxylin, dehydrated through ascending alcohol, cleared, and mounted with resinous mounting medium. Quantification was performed by counting both the phospho-STAT3-positive and -negative cells on slides representative of eight tumors and significance was determined by Student's t-test.
as §1

v-Src/3T3 tumors = test: Antitumor activity in nude mouse xenograft model, v-Src/3T3; type: in vivo; details: v-Src/3T3 xenograft, nude mice, 1 mg/kg/day i.p.; Wit = withacnistin mixture
Description: Antitumor activity in the nude mouse tumor xenograft model. Nude mice (Charles River, Wilmington, Mass., USA) were maintained in accordance with the Institutional Animal Care and Use Committee (IACUC) procedures and guidelines. A549 cells were harvested, resuspended in PBS, and injected subcutaneously (s.c.) into the right and left flank (1×10^7 cells per flank) of 8-week-old female nude mice as reported previously (Blaskovich, M. A. et al. Cancer Res., 2003, 63:1270-1279). When tumors reached about 150 mm^3, animals were randomized (four animals per group; two tumors per animal) and dosed intraperitoneally (i.p.) either with cucurbitacin analogs (0.5 or 1 mg/kg/day, i.p.) in 20% DMSO in water or with an equal volume of vehicle control. The tumor volumes were determined by measuring the length (l) and the width (w) and calculating the volume (V=lw^2/2) as described previously (Blaskovich, M. A. et al. Cancer Res., 2003, 63:1270-1279). Statistical significance between control and treated animals were evaluated by using Student's t-test.
To determine the ability of the cucurbitacin analogs and withacnistin to inhibit tumor growth in vivo, the antitumor activity of the cucurbitacin analogs and withacnistin against both A549 and v-Src/3T3 tumors in a nude mouse xenograft model was evaluated. When the tumors became palpable (at volumes of approximately 100-150 mm^3), the mice were treated either with vehicle control or 1 mg/kg/day of the cucurbitacins or the withacnistin mixture. Tumor volumes were monitored by caliper measurement as previously described (Blaskovich, M. A. et al. Cancer Res., 2003, 63:1270-1279) and under Materials and Methods.
Withacnistin inhibited 57% of tumor growth while Cuc I, B, and E inhibited 45, 40, and 42% of tumor growth, respectively (FIG. 3 and Table 2).

STAT3 = test: Total STAT3 levels (STAT3 immunoprecipitation / immunoblot); type: cell-based, human; details: A549 cells
Procedure: STAT3 immunoprecipitation. A549 cells were treated for 4 hour with vehicle or the withacnistin mixture, then lysed in 150 mM HEPES, pH 7.5, 150 mM NaCl, 1 mM EDTA, 0.5% NP-40, 10% glycerol, 5 mM NaF, 1 mM DTT, 1 mM PMSF, 2 mM sodium orthovanadate, and 5 μg/ml leupeptin. Sample lysates were collected and cleared, then 500 μg of lysate was immunoprecipitated with 50 ng STAT3 antibody overnight at 4° C., then rocked with 25 μl Protein A/G PLUS agarose (Santa Cruz Biotechnology) for 1 hour at 4° C. Samples were washed four times with lysis buffer, then boiled in 2×SDS-PAGE sample buffer and run on 10% SDS-PAGE gel. Protein was transferred to nitrocellulose then blotted as above for both phospho-specific STAT3 and STAT3.
As further support of the specific antiphosphotyrosine STAT3, but not antiphosphotyrosine JAK2, activity of withacnistin, A549 cells, as well as two breast carcinoma cell lines (MDA-MB-435 and MDA-MB-468) that also express constitutively activated JAK2 and STAT3, were treated with the withacnistin mixture at various concentrations, and determined IC50 values of inhibition of STAT3 and JAK2 activation. […] In all three cell lines, JAK2 activation was not inhibited at withacnistin concentrations as high as 10 μM. […] Thus, in all three cell lines, withacnistin (Wit) inhibits specifically STAT3 but not JAK2 activation and Cuc A inhibits JAK2 but not STAT3 activation whereas Cuc I inhibits the activation of both STAT3 and JAK2.

Structure (SMILES) | TUNEL-positive cells (A549 tumors) [%] | inhibition of phosphotyrosine-STAT3 compared to vehicle control (phosphotyrosine STAT3) | P-STAT3 positive cells (phosphotyrosine STAT3) [%] | % Inhibition of tumor growth (v-Src/3T3 tumors) [%] | total STAT3 levels (STAT3; 10 μM, 4 hours) | total STAT3 levels (STAT3; by 24 hours, data not shown)
CC(=O)OC(C)(C)/C=C/C(=O)[C@](C)(O)[C@H]1[C@H](O)C[C@@]2(C)[C@@H]3CC=C4[C@@H](C[C@H](O)C(=O)C4(C)C)[C@]3(CO)C(=O)C[C@]12C [Cuc A, cucurbitacin A] | 0.3±0.2 | no inhibition | 80.8±1.8 | 16 | does not affect | 
CC(C)(O)/C=C/C(=O)[C@](C)(O)[C@H]1[C@H](O)C[C@@]2(C)[C@@H]3CC=C4[C@@H](C=C(O)C(=O)C4(C)C)[C@]3(C)C(=O)C[C@]12C [Cuc I, cucurbitacin I] | 10.5±3.0 | 28.5% | 54.7±4.5 | 45 | does not affect | 
CC(=O)OC[C@]12CC[C@H]3[C@@H](C[C@H]4O[C@]45[C@@H](O)C=CC(=O)[C@]35C)[C@@H]1CC[C@@H]2[C@H](C)[C@H]1CC(C)=C(C)C(=O)O1 [withacnistin] | 14.3±2.7 | 70.5% | 22.6±7.3 | 57 | without affecting | suppressed
